Experimental findings from publication PMC5113778, “Fragment Linking and Optimization of Inhibitors of the Aspartic Protease Endothiapepsin: Fragment‐Based Drug Design Facilitated by Dynamic Combinatorial Chemistry” (Angewandte Chemie (International Ed. in English), 2016) are described below.

What all share (type): biochemical
The target in test [1] is T1, endothiapepsin (Cryphonectria parasitica, UniProt P11838).
T1 construct: gene EAPA; mature active enzyme, monomer
Nature of the test: fluorescence-based protease assay adapted from HIV protease assay; Ki presumably from IC50 (Cheng-Prusoff). An excerpt:
fluorescence-based protease assay adapted from HIV protease assay; Ki presumably from IC50 (Cheng-Prusoff) on endothiapepsin

Test [2] has as its target T1, endothiapepsin. Nature of the test: fluorescence-based protease assay adapted from HIV protease assay; crystal soaking. An excerpt:
fluorescence-based protease assay adapted from HIV protease assay; crystal soaking on endothiapepsin

Test [3] has as its target T1, endothiapepsin. Put plainly: fluorescence-based protease assay adapted from HIV protease assay. An excerpt:
fluorescence-based protease assay adapted from HIV protease assay on endothiapepsin

T1 sequence (P11838 90-419): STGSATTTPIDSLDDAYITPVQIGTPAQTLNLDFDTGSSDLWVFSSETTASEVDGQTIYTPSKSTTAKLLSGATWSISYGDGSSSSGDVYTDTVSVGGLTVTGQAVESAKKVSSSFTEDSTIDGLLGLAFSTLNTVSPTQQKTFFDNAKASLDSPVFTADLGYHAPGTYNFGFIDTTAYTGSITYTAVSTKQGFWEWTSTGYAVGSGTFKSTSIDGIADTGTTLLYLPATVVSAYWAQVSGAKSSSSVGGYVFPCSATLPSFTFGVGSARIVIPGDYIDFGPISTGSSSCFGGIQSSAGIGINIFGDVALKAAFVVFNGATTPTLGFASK

For the compound `N[C@@H](Cc1c[nH]c2ccccc12)C(=O)N/N=C/c1cccc(/C=N/NC(=O)[C@@H](N)Cc2c[nH]c3ccccc23)c1` [compound 13, bis-acylhydrazone 13], at endothiapepsin [1], the affinity, expressed as Ki, was 25.4 ± 0.2 nM. On endothiapepsin [2], the 50% inhibitory concentration (IC50) stood at 54 ± 0.5 nM.

Turning to `N[C@@H](Cc1ccccc1)C(=O)N/N=C/c1cccc(/C=N/NC(=O)[C@@H](N)Cc2ccccc2)c1` [compound 16, bis-acylhydrazone 16], half-maximal inhibition on endothiapepsin [3] (IC50) required 2100 ± 100 nM. In addition, on endothiapepsin [1], the inhibition constant (Ki) was found to be 980 ± 50 nM.
